Where two headings read alike, the source gives them in different places.
Legend:
[1] = test system: non-growing S. aureus DSM2569; test: Dilution-regrowth assay (OD600, start-growth-time) on stationary-phase S. aureus; assay type: cell-based, Staphylococcus aureus; settings: for OD600 at 8hr, Mean: after dilution into drug-free medium; for Regrowth, OD600 at 6h or 8h after dilution into drug-free medium: average
Method: The cultures were grown and treated for 24 h in 1:4 CA-MHB (pH 7.4).
This approach allowed us to capture the time when cultures reached a threshold optical density (start-growth-time, SGT[15]).
The cultures were incubated for 24 h in non-baffled Erlenmeyer flasks at 37 °C with shaking at 200 rpm.
For P. aeruginosa and S. aureus, dose–response analysis was conducted in 96-well plates with a 200 μl assay volume, following the procedure used for screening assay validation experiments. […] Stock solutions were prepared and stored according to the manufacturers’ instructions, then diluted in 10% DMSO before use. Cultures were incubated for 24 h in 1:4 diluted CA-MHB medium under the same conditions used for UPEC cultivation. In preliminary experiments, each compound was tested at a concentration of 20 μM in the dilution-regrowth assay with 4 technical replicates. Regrowth was monitored using a microplate reader at 37 °C with continuous shaking, and OD600 was recorded every 20 min. The time at which OD600 exceeded the threshold of 0.12 was recorded as the Start_Growth-Time.
Statistical significance of the drug effects was assessed using a one-way ANOVA followed by Dunnett’s test, comparing each treatment to the drug-free control. Statistical significance of the differences in chemical characteristics between the hit compounds and the Prestwick library was assessed using a Mann–Whitney test. Statistical significance was set at P ≤ 0.05. A five-parameter logistic equation was used for asymmetric sigmoidal curve fitting and for EC50 and IC50 determination. The Venn diagram in Fig. 1F was prepared using BioVenn web application. Characteristics of the chemical and physical properties of Prestwick library compounds were obtained from Supplementary Table S1 from reference. Characteristics of the hit compounds not included in the Prestwick library were retrieved from the PubChem database.

[2] = test system: TC7 cells; test: TC7 cell viability upon drug exposure, MTS assay; assay type: cell-based; settings: at the MIC concentrations, 12 h, no bacteria
Method: TC7 cells were grown to confluence in transparent 96-well cell culture plates (TPP) in the same cell culture medium used for the in vitro infection assay. Just prior to the experiment, the medium was discarded, and the cells were washed twice with sterile PBS to remove any traces of medium or dead cells. […] The plate was incubated at 37 °C in a CO2 incubator for 12 h, under the same conditions as the infection assay.
The 3-(4,5-dimethylthiazol-2-yl)-5-(3-carboxymethoxyphenyl)-2-(4-sulfophenyl)-2H-tetrazolium (MTS) assay was performed using the CellTiter 96® AQueous One Solution Cell Proliferation Assay kit (Promega), according to the manufacturer’s instructions. Briefly, 20 μl of CellTiter 96 AQueous One Solution Reagent was added to each well, and the plate was incubated for 2 h at 37 °C in a CO2 incubator. The OD490 of the samples was measured using a Spark multimode plate reader (Tecan). The raw values were normalized to the control wells incubated with infection buffer only. The experiment was performed in duplicate.

[3] = test system: non-growing P. aeruginosa; test: Time-dependent effects of drug treatment on regrowth, P. aeruginosa; assay type: cell-based, Pseudomonas aeruginosa; settings: 10 µM, OD600 8 h after dilution
Method: (§1) For screening and concentration-dependent characterization of the hit compounds, we used a 24-h incubation to capture their effects, although the actual onset of their activity may occur much sooner. To assess the speed of action, we treated stationary-phase cultures of three organisms with compounds that had previously shown a strong regrowth delay at 10 µM. We selected compounds that, in earlier tests, strongly delayed regrowth, such that diluted cultures remained below an OD600 of 0.12 (indicating no growth) after 6 h for UPEC or 8 h for P. aeruginosa and S. aureus in drug-free medium.
(§2) We collected samples at different times during the 24-h incubation, diluted them 2500-fold, and measured the OD600 after 6 or 8 h of further incubation, respectively. […] Rifampicin acts quickly against non-growing S. aureus, while the effects of the other compounds increase gradually during incubation but are already apparent within the first hour of treatment.
Bacteria were cultivated in 1:4 diluted CA-MHB (40 mM HEPES, pH 7.4) for 24 h. Aliquots were dispensed into a 96-well plate, and compounds were added at a 10 µM concentration. Samples were collected at designated time points, diluted 2500-fold as described for the dilution-regrowth assay, and incubated in standing plates within a humid box at 37 °C. The OD600 of the samples was measured to assess regrowth using a microplate reader (BioTek Synergy H1) after 6 h for UPEC and 8 h for P. aeruginosa and S. aureus. The experiment was performed in triplicates.

[4] = test system: SOS response in UPEC CFT073; test: SOS response induction analysis, pAED2 cda' promoter mScarlet-I reporter; assay type: cell-based, Escherichia coli; settings: for induction of the SOS response in growing UPEC cultures / growth inhibition of growing UPEC: 20 μM; for induction of the SOS response in growing UPEC cultures: 6 h, MMC, BLE, ECH in 1:4 CA-MHB pH 7.4, PLI, SAT, EVO in LPM pH 5.5; for growth inhibition of growing UPEC: LPM pH 5.5, Fig. S7C,D
Method: Since we aimed to test SOS induction in non-growing cultures, it was essential to use a reporter with no leaky expression in the stationary phase. Therefore, we constructed the plasmid pAED2, based on the low copy-number plasmid pSC101, which contains the cda’ promoter in front of the mScarlet-I-encoding reporter gene.
Overnight cultures of CFT073 harboring a reporter plasmid were grown in 3 ml of LB supplemented with 100 µg/ml carbenicillin (Cb), then diluted 1:100 into the medium used for testing. For validation of the pANO1::cda’ reporter, an overnight culture was diluted into CA-MHB (supplemented with 40 mM HEPES, pH 7.4, and 100 µg/ml Cb) and grown to an OD600 ≈ 0.5 at 37 °C with shaking at 200 rpm in an Erlenmeyer flask. […] Empty wells were filled with water. […] The experiment was performed in triplicate.
For analysis of the SOS induction by anti-cancer compounds, the overnight cultures were diluted either into 1:4 diluted CA-MHB (40 mM HEPES, pH 7.4) or LPM (30 mM MES, pH 5.5) that were supplemented with 100 µg/ml Cb. For analysis of the effect on growing bacteria, the cultures were incubated at 37 °C with shaking at 200 rpm in Erlenmeyer flasks for 90 min, to an OD600 ≈ 0.5. Then, 180 μl aliquots were transferred to 96-well plates, and 20 μl of the 200 μM drug solution was added to achieve a final concentration of 20 μM. The plates were incubated in a microplate reader (BioTek Synergy H1) at 37 °C with continuous shaking for 6 h. OD600 and mScarlet fluorescence were recorded throughout the incubation.
For analysis of the effect of anti-cancer compounds on stationary phase- and regrowing bacteria, the cultures were incubated for 24 h at 37 °C with shaking at 200 rpm in Erlenmeyer flasks. […] The samples were incubated for 24 h at 37 °C in standing 1.5 ml tubes. Before and after the drug treatment, 25 μl aliquots were taken and diluted by mixing with 175 μl PBS. OD600 and mScarlet fluorescence were recorded using a microplate reader (BioTek Synergy H1).
After the treatment, stationary-phase bacteria were harvested by centrifugation at 5000 × g for 5 min at 20 °C, washed twice with PBS, and resuspended in 475 μl PBS.

[5] = test system: non-growing S. aureus; test: Time-dependent effects of drug treatment on regrowth, S. aureus; assay type: cell-based, Staphylococcus aureus; settings: 10 µM, OD600 8 h after dilution
Method: as §1, §2
Bacteria were cultivated in 1:4 diluted CA-MHB (40 mM HEPES, pH 7.4) for 24 h. Aliquots were dispensed into a 96-well plate, and compounds were added at a 10 µM concentration. […] The OD600 of the samples was measured to assess regrowth using a microplate reader (BioTek Synergy H1) after 6 h for UPEC and 8 h for P. aeruginosa and S. aureus. […]

[6] = S. aureus, drug concentration 0.1
[7] = S. aureus, drug concentration 0.5
[8] = S. aureus, drug concentration 2.5
[9] = S. aureus, drug concentration 10
[10] = Staphylococcus aureus, DSM2569, S. aureus, regrowth delay of non-growing bacteria, 1:4 CA-MHB pH 7.4, 24 h treatment, OD600 8 h after dilution, read-out: EC50
[11] = Staphylococcus aureus, DSM2569, pH 7.4

CCCCC(CC)CNC(=N)NC(=N)NCCCCCCNC(=N)NC(=N)NCC(CC)CCCC (stereo not drawn) [Alexidine]
Regrowth, OD600 at 6h or 8h after dilution into drug-free medium (average) [1, 6]: 0.539
Regrowth, OD600 at 6h or 8h after dilution into drug-free medium (average) [1, 7]: 0.527
Regrowth, OD600 at 6h or 8h after dilution into drug-free medium (average) [1, 8]: 0.433
Regrowth, OD600 at 6h or 8h after dilution into drug-free medium (average) [1, 9]: 0.087
EC50 [1, 10]: 3280 nM
toxicity to TC7 epithelial cells [2]: toxic

CN1CCN(c2cc3c(cc2F)c(=O)c(C(=O)O)cn3-c2ccc(F)cc2)CC1 [Difloxacin]
speed of action: regrowth delay over treatment time [3]: act more slowly
OD600 at 6h or 8h after dilution into drug-free medium (regrowth) ([1]; S. aureus, drug conc 0.1): 0.660
OD600 at 6h or 8h after dilution into drug-free medium (regrowth) ([1]; S. aureus, drug conc 0.5): 0.630
OD600 at 6h or 8h after dilution into drug-free medium (regrowth) ([1]; S. aureus, drug conc 2.5): 0.506
OD600 at 6h or 8h after dilution into drug-free medium (regrowth) ([1]; S. aureus, drug conc 10): 0.371
EC50 [1, 10]: 2970 nM

CS[C@H]1SC[C@H]2C(=O)N(C)[C@@H](C(C)C)C(=O)OC[C@@H](NC(=O)c3cnc4ccccc4n3)C(=O)N[C@@H](C)C(=O)N(C)[C@@H]1C(=O)N(C)[C@@H](C(C)C)C(=O)OC[C@@H](NC(=O)c1cnc3ccccc3n1)C(=O)N[C@@H](C)C(=O)N2C [Echinomycin]
induction of the SOS response in growing UPEC cultures [4]: induced the SOS response

Cn1c(COP(=O)(NCCBr)NCCBr)cnc1[N+](=O)[O-] [Evofosfamide]
induction of the SOS response in growing UPEC cultures [4]: induced the SOS response
growth inhibition of growing UPEC [4]: only a slight growth inhibition
OD600 at 8hr, Mean ([1]; S. aureus, 0.1 μM): 0.802
OD600 at 8hr, Mean ([1]; S. aureus, 0.5 μM): 0.751
OD600 at 8hr, Mean ([1]; S. aureus, 2.5 μM): 0.502
OD600 at 8hr, Mean ([1]; S. aureus, 10 μM): 0.107
EC50 [1, 11]: 2660 nM

CO[C@@]12[C@H](COC(N)=O)C3=C(C(=O)C(C)=C(N)C3=O)N1C[C@@H]1N[C@@H]12 [Mitomycin C]
induction of the SOS response in growing UPEC cultures [4]: induced the SOS response
Regrowth, OD600 at 6h or 8h after dilution into drug-free medium (average) [1, 6]: 0.433
Regrowth, OD600 at 6h or 8h after dilution into drug-free medium (average) [1, 7]: 0.163
Regrowth, OD600 at 6h or 8h after dilution into drug-free medium (average) [1, 8]: 0.087
Regrowth, OD600 at 6h or 8h after dilution into drug-free medium (average) [1, 9]: 0.106
EC50 [1, 11]: 129 nM

CC1COc2c(N3CCN(C)CC3)c(F)cc3c(=O)c(C(=O)O)cn1c23 (stereo not drawn) [Ofloxacin]
SOS induction during recovery of treated non-growing UPEC ([4]; 10 μM, 24 h, then washed and diluted in CA-MHB, single control experiment): SOS induction during recovery
Regrowth, OD600 at 6h or 8h after dilution into drug-free medium ([1]; S. aureus, concentration 0.1): 0.643
Regrowth, OD600 at 6h or 8h after dilution into drug-free medium ([1]; S. aureus, concentration 0.5): 0.590
Regrowth, OD600 at 6h or 8h after dilution into drug-free medium ([1]; S. aureus, concentration 2.5): 0.519
Regrowth, OD600 at 6h or 8h after dilution into drug-free medium ([1]; S. aureus, concentration 10): 0.417
EC50 [1, 10]: 14300 nM

CO[C@H]1/C=C/O[C@@]2(C)Oc3c(C)c(O)c4c(O)c(c(/C=N/N5CCN(C)CC5)c(O)c4c3C2=O)NC(=O)/C(C)=C\C=C\[C@H](C)[C@H](O)[C@@H](C)[C@@H](O)[C@@H](C)[C@H](OC(C)=O)[C@@H]1C [Rifampicin]
EC50 [1, 10]: 43 nM
speed of action: regrowth delay over treatment time [5]: acts quickly

CC(=O)[O][Pt]([NH2])([Cl])([Cl])([NH]C1CCCCC1)[O]C(C)=O [Satraplatin]
induction of the SOS response in growing UPEC cultures [4]: induced the SOS response
growth inhibition of growing UPEC [4]: only a slight growth inhibition
speed of action: regrowth delay over treatment time [3]: act more slowly
toxicity to TC7 epithelial cells [2]: toxic

C[C@@H]1CN(c2c(F)c(N)c3c(=O)c(C(=O)O)cn(C4CC4)c3c2F)C[C@H](C)N1 [Sparfloxacin]
speed of action: regrowth delay over treatment time [3]: act more slowly

N[C@@H]1[C@H]2CN(c3nc4c(cc3F)c(=O)c(C(=O)O)cn4-c3ccc(F)cc3F)C[C@@H]12 [Trovafloxacin]
speed of action: regrowth delay over treatment time [3]: act more slowly

C=C[C@]1(C)C[C@@H](OC(=O)CSC(C)(C)CNC(=O)[C@H](N)C(C)C)[C@]2(C)[C@H](C)CC[C@]3(CCC(=O)[C@H]32)[C@@H](C)[C@@H]1O [Valnemulin]
toxicity to TC7 epithelial cells [2]: toxic

Bleomycin
induction of the SOS response in growing UPEC cultures [4]: induced the SOS response
OD600 at 8hr, Mean ([1]; S. aureus, 0.1 μM): 0.622
OD600 at 8hr, Mean ([1]; S. aureus, 0.5 μM): 0.595
OD600 at 8hr, Mean ([1]; S. aureus, 2.5 μM): 0.351
OD600 at 8hr, Mean ([1]; S. aureus, 10 μM): 0.129
EC50 ([1]; S. aureus, regrowth delay of non-growing bacteria, 1:4 CA-MHB pH 7.4, 24 h treatment, OD600 8 h after dilution, read-out: EC50): 2560 nM

Plicamycin
induction of the SOS response in growing UPEC cultures [4]: not detected
growth inhibition of growing UPEC [4]: only a slight growth inhibition
Regrowth, OD600 at 6h or 8h after dilution into drug-free medium (average) [1, 6]: 0.578
Regrowth, OD600 at 6h or 8h after dilution into drug-free medium (average) [1, 7]: 0.347
Regrowth, OD600 at 6h or 8h after dilution into drug-free medium (average) [1, 8]: 0.205
Regrowth, OD600 at 6h or 8h after dilution into drug-free medium (average) [1, 9]: 0.143
EC50 ([1]; S. aureus, regrowth delay of non-growing bacteria, 1:4 CA-MHB pH 7.4, 24 h treatment, OD600 8 h after dilution): 359 nM

Reference: publication PMC11992225, “Antibacterial compounds against non-growing and intracellular bacteria” (npj Antimicrobials and Resistance, 2025)
